What was measured:
HLA-A*2401 [1] = assay: Competition based cellular binding assay, HLA-A*2401 (B-cell line VIJF); set-up: species or system human; details: for Peptide Binding Affinity: HLA-A*2401, IC50 category
HLA-A*2401 [2] = assay: Stability of peptide-HLA complex, binding at 4° C. and 20° C., HLA-A*2401; set-up: species or system human; details: for Peptide Binding Stability: HLA-A*2401, IC50 at 20° C. vs 4° C.
Description: Stability of other peptide-HLA complexes was preferably determined as follows. […] Peptides of >50% of the initial complexes was lost within 2 hours were considered unstable. […] The rest was designated as unstable peptide binding.
Peptides 8-11 residues in length were selected based on typical anchor residues for HLA-A*0101, A*0301, A*1101 and HLA-A*2401 (Rammensee H G et al). The capacity of peptides to bind was tested in a competition based cellular binding assay as previously described (van der Burg S H et al 1995). FL-labeled reference peptides were synthesized as Cys-derivative (van der Burg S H et al 1995). Fluorescence labeled reference peptides used were: YLEPAC(FL)AK (SEQ ID NO: 87) (HLA-A*0101) and KVFPC(FL)ALINK (SEQ ID NO: 88) (HLA-A*1101) (Sette A et al), KVFPC(FL)ALINK (SEQ ID NO: 89) (HLAA*0301) (van der Burg S H et al 1995) and RYLKC(FL)QQLL (SEQ ID NO: 90) (A*2401) (Dai L C et al). B-cell lines used are: CAA (A*0101), EKR (A*0301), BVR (A*1101), VIJF (A*2401). The relative binding capacity of the peptides is expressed as the peptide concentration to inhibit 50% (1050) of the binding of the reference peptide. […] Peptide stabilization for HLA-A*0201 was performed as previously described (van der Burg S H et al, 1996). Peptides of >50% of the initial complexes was lost within 2 hours were considered unstable. Stability of other peptide-HLA complexes was determined as follows. Peptide binding was performed at 4° C. and 20° C. and 1050 were determined. […] The rest was designated as unstable peptide binding.

[3] = molecular target: T1, 20S immuno-proteasomes from mouse B-cell line (RMA) (Mus musculus, UniProt O35955+P28063+P28076); assay: In vitro proteasome mediated digestion of 30-mers, mass spectrometry, immunoproteasome RMA; type: biochemical; details: 30 residue long precursor peptides
T1 construct: 20S immuno-proteasomes were purified from a mouse B-cell line (RMA); endogenous in cells; host or cells: RMA cells; 20S proteasome purified from them
Description: (§1) In the context of the invention, “being inefficiently processed by a proteasome” preferably means that within the first hour of digestion by a proteasome less than 1% of total digested peptide is found. The processing by a proteasome is preferably assessed by incubating a purified proteasome, more preferably a human proteasome with a peptide comprising the potential CTL epitope (30 amino acid length approximately) in a proteasome digestion buffer during at least one hour at 37° C. The reaction is subsequently stopped by adding trifluoroacetic acid. Analysis of the digested peptides is performed with electrospray ionization mass spectrometry (see example 1). Even more preferably, the human proteasome is an immunoproteasome from B-LCL JY cells (Kessler J H et al. 2001).
(§2) 20S immuno-proteasomes were purified from a mouse B-cell line (RMA) and a human B-LCL cell line (JY) and 20S household proteasomes were purified from human tumor cell line (HeLa) as described (Kessler J H et al 2001). To assess kinetics, digestions were performed with different incubation periods as indicated. Briefly, peptides containing the (potential) CTL epitopes (30 mers, 20 μg) were incubated with 1 μg of purified proteasome at 37° C. for 1 h, 4 h and 24 h in 300 μl proteasome digestion buffer, trifluoroacetic acid (30 μl) was added to stop the digestion and samples were stored at −20° C. before mass spectrometric analysis. Electrospray ionization mass spectrometry was performed on a hybrid quadrupole time-of-flight mass spectromter, a Q-TOF (Micromass), equipped with an on-line nanoelectrospray interface with an approximate flow rate of […] as described (Kessler J H et al 2001). The peaks in the mass spectrum were searched in the digested precursor peptide using the Biolynx/proteins software (Micromass) supplied with the mass spectrometer. The intensity of the peaks in the mass spectra was used to establish the relative amounts of peptides generated after proteasome digestion. The relative amounts of the peptides are given as a percentage of the total amount of peptide digested by the proteasome at the indicated incubation time. Major cleavage sites are defined as more than >1% of total digested peptide within the first hour.

[4] = molecular target: T2, 20S immuno-proteasomes from human B-LCL cell line (JY) (Homo sapiens, UniProt P28062+P28065+P40306); assay: In vitro proteasome mediated digestion of 30-mers, mass spectrometry, immunoproteasome JY; type: biochemical; details: 30 residue long precursor peptides
T2 construct: purified from a mouse B-cell line (RMA) and a human B-LCL cell line (JY); endogenous in cells; host or cells: B-LCL JY cells; 20S proteasome purified from them
Description: as §1, §2

[5] = molecular target: T3, 20S household proteasomes from human tumor cell line (HeLa) (Homo sapiens, UniProt P28072+P28074+Q99436); assay: In vitro proteasome mediated digestion of 30-mers, mass spectrometry, household proteasome HeLa; type: biochemical; details: 30 residue long precursor peptides
T3 construct: 20S household proteasomes were purified from human tumor cell line (HeLa); endogenous in cells; host or cells: HeLa cells; 20S proteasome purified from them
Description: as §1, §2

HLA-A*0101 = molecular target: T4, HLA-A*0101 (Homo sapiens, UniProt P04439, A114D/A174V/A182V/D101N/D185E/E176A/E190D/L180R/Q94H/R68K/S129P/T187R/V100A/V91M/W191G); assay: Stability of peptide-HLA complex, binding at 4° C. and 20° C., HLA-A*0101; details: for HLA binding Stability (Table 5): HLA type A1; for Peptide Binding Stability: HLA-A*0101, IC50 at 20° C. vs 4° C.
T4 construct: B-cell lines used are: CAA (A*0101), EKR (A*0301), BVR (A*1101), VIJF (A*2401); endogenous in cells; host or cells: B-cell line CAA

HLA-A*0301 = molecular target: T5, HLA-A*0301 (Homo sapiens, UniProt P04439); assay: Stability of peptide-HLA complex, binding at 4° C. and 20° C., HLA-A*0301
T5 construct: B-cell lines used are: CAA (A*0101), EKR (A*0301), BVR (A*1101), VIJF (A*2401); endogenous in cells; host or cells: B-cell line EKR
Summary of the method: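 Competition binding used B-cell lines CAA (A*0101), EKR (A*0301), BVR (A*1101) and VIJF (A*2401) against fluorescein-labelled reference peptides. IC50 is the peptide concentration inhibiting 50% of reference binding. Binding was run at 4 °C and 20 °C with IC50 determined at each; complexes losing >50% within 2 hours were deemed unstable.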

HLA-A*0201 = HLA-A*0201 (Homo sapiens, UniProt P04439, D140Y/D185E/D98H/E176V/E277Q/G131W/G231S/I119V/I121R/I166T/I218V/L300P/L318F/N151K/N90K/P208A/P217A/Q86G/Q94H/R138H/R169H/T345S); assay: Peptide stabilization for HLA-A*0201; type: binding

`CC(C)C[C@H](NC(=O)[C@H](Cc1ccccc1)NC(=O)CNC(=O)[C@H](CC(C)C)NC(=O)[C@H](CCCNC(=N)N)NC(=O)[C@H](Cc1ccccc1)NC(=O)CNC(=O)[C@H](Cc1ccc(O)cc1)NC(=O)[C@@H](N)CO)C(=O)O` [p53 106-114] was tested, and the “HLA binding Affinity (Table 5)” value (HLA-A*2401 [1]; HLA type A24) was “high”, the “Peptide Binding Affinity” value (HLA-A*2401 [1]) was “high” and the “HLA binding Stability (Table 5)” value (HLA-A*2401 [2]; HLA type A24) was “+/− (Peptides that displayed IC50 at 20 °C of more than twice the IC50 at 4 °C but IC50 < 15 μM were considered to bind with intermediate stability.)”. The “Peptide Binding Stability” value (HLA-A*2401 [2]) was “+/− (Peptides that displayed IC50 at 20 °C of more than twice the IC50 at 4 °C but IC50 < 15 μM were considered to bind with intermediate stability.)”, the “Proteasomal Cleavage of C-terminus, IP (RMA)” value [3] was “+ (Major cleavage sites are defined as more than >1% of total digested peptide within the first hour)” and the “Proteasomal Cleavage of C-terminus, IP (JY)” value [4] was “+ (Major cleavage sites are defined as more than >1% of total digested peptide within the first hour)”. The “Proteasomal Cleavage of C-terminus, HH (HeLa)” value [5] was “+ (Major cleavage sites are defined as more than >1% of total digested peptide within the first hour)”.

In the case of `CC(C)C[C@H](NC(=O)[C@H](CC(N)=O)NC(=O)CNC(=O)[C@H](CCC(=O)O)NC(=O)[C@@H](NC(=O)[C@@H](N)CCCNC(=N)N)C(C)C)C(=O)N[C@@H](CCCNC(=N)N)C(=O)N[C@H](C(=O)N[C@@H](CCC(=O)O)C(=O)N[C@@H](Cc1ccc(O)cc1)C(=O)O)C(C)C` [p53 196-205], the “HLA binding Stability (Table 5)” value (HLA-A*0101) is reported as “+ (Stable peptides displayed IC50 at 20 °C that deviated <2 times of the IC50 at 4° C.)” and the “Peptide Binding Stability” value (HLA-A*0101) is reported as “+ (Stable peptides displayed IC50 at 20 °C that deviated <2 times of the IC50 at 4° C.)”.

With `CC(C)C[C@H](NC(=O)[C@H](CCCNC(=N)N)NC(=O)[C@H](Cc1ccccc1)NC(=O)CNC(=O)[C@H](Cc1ccc(O)cc1)NC(=O)[C@@H](N)CO)C(=O)NCC(=O)N[C@@H](Cc1ccccc1)C(=O)O` [p53 106-113] the “Peptide Binding Affinity” value (HLA-A*2401 [1]) was “high”, the “Peptide Binding Stability” value (HLA-A*2401 [2]) was “+ (Stable peptides displayed IC50 at 20 °C that deviated <2 times of the IC50 at 4° C.)” and the “Proteasomal Cleavage of C-terminus, IP (RMA)” value [3] was “+ (Major cleavage sites are defined as more than >1% of total digested peptide within the first hour)”. The “Proteasomal Cleavage of C-terminus, IP (JY)” value [4] was “+ (Major cleavage sites are defined as more than >1% of total digested peptide within the first hour)” and the “Proteasomal Cleavage of C-terminus, HH (HeLa)” value [5] was “+ (Major cleavage sites are defined as more than >1% of total digested peptide within the first hour)”.

In the case of `CC(C)[C@H](NC(=O)[C@H](CO)NC(=O)[C@H](CCCCN)NC(=O)[C@H](C)NC(=O)[C@@H](NC(=O)CN)[C@@H](C)O)C(=O)N[C@H](C(=O)N[C@@H](CS)C(=O)N[C@H](C(=O)N[C@@H](Cc1ccc(O)cc1)C(=O)O)[C@@H](C)O)[C@@H](C)O` [p53 117-126], the “HLA binding Stability (Table 5)” value (HLA-A*0301; HLA type A3) is reported as “− (The rest was designated as unstable peptide binding.)”, the “Peptide Binding Stability” value (HLA-A*0301; HLA-A*0301, IC50 at 20° C. vs 4° C.) is reported as “− (The rest was designated as unstable peptide binding.)” and the “HLA binding Stability (Table 5)” value (HLA-A*0101) is reported as “+ (Stable peptides displayed IC50 at 20 °C that deviated <2 times of the IC50 at 4° C.)”. For the same compound, the “Peptide Binding Stability” value (HLA-A*0101) was “+ (Stable peptides displayed IC50 at 20 °C that deviated <2 times of the IC50 at 4° C.)”.

`CC(C)C[C@H](NC(=O)[C@H](CC(C)C)NC(=O)[C@H](CCCCN)NC(=O)[C@H](Cc1c[nH]c2ccccc12)NC(=O)[C@H](CC(C)C)NC(=O)[C@H](CC(=O)O)NC(=O)[C@H](CO)NC(=O)[C@H](Cc1ccccc1)NC(=O)[C@@H](N)[C@@H](C)O)C(=O)O` [p53 18-26] was tested, and the “Peptide Binding Affinity” value (HLA-A*2401 [1]) was “high”, the “Peptide Binding Stability” value (HLA-A*2401 [2]) was “+ (Stable peptides displayed IC50 at 20 °C that deviated <2 times of the IC50 at 4° C.)” and the “Proteasomal Cleavage of C-terminus, IP (RMA)” value [3] was “+ (Major cleavage sites are defined as more than >1% of total digested peptide within the first hour)”. For the same compound, the “Proteasomal Cleavage of C-terminus, IP (JY)” value [4] was “+ (Major cleavage sites are defined as more than >1% of total digested peptide within the first hour)” and the “Proteasomal Cleavage of C-terminus, HH (HeLa)” value [5] was “+ (Major cleavage sites are defined as more than >1% of total digested peptide within the first hour)”.

`CC(C)C[C@H](NC(=O)[C@@H](N)Cc1ccccc1)C(=O)N[C@@H](Cc1c[nH]cn1)C(=O)N[C@@H](CO)C(=O)NCC(=O)N[C@H](C(=O)N[C@@H](C)C(=O)N[C@@H](CCCCN)C(=O)N[C@@H](CO)C(=O)N[C@H](C(=O)O)C(C)C)[C@@H](C)O` [p53 113-122] was tested, and the “HLA binding Stability (Table 5)” value (HLA-A*0201; HLA type A2, value in hours) was 6 h, the “Peptide Binding Stability” value (HLA-A*0201; HLA-A*0201, p53 peptides) was 6 h and the “Proteasomal Cleavage of C-terminus, IP (RMA)” value [3] was “+ (Major cleavage sites are defined as more than >1% of total digested peptide within the first hour)”. The “Proteasomal Cleavage of C-terminus, IP (JY)” value [4] was “+ (Major cleavage sites are defined as more than >1% of total digested peptide within the first hour)” and the “Proteasomal Cleavage of C-terminus, HH (HeLa)” value [5] was “+ (Major cleavage sites are defined as more than >1% of total digested peptide within the first hour)”.

With `CC(C)C[C@H](NC(=O)[C@H](CCCNC(=N)N)NC(=O)[C@H](Cc1ccccc1)NC(=O)CNC(=O)[C@H](Cc1ccc(O)cc1)NC(=O)[C@H](CO)NC(=O)CNC(=O)[C@H](CCC(N)=O)NC(=O)[C@H](Cc1ccc(O)cc1)NC(=O)[C@@H](N)[C@@H](C)O)C(=O)O` [p53 102-111] the “Peptide Binding Affinity” value (HLA-A*2401 [1]) was “high”, the “Peptide Binding Stability” value (HLA-A*2401 [2]) was “+ (Stable peptides displayed IC50 at 20 °C that deviated <2 times of the IC50 at 4° C.)” and the “Proteasomal Cleavage of C-terminus, IP (RMA)” value [3] was “+ (Major cleavage sites are defined as more than >1% of total digested peptide within the first hour)”. For the same compound, the “Proteasomal Cleavage of C-terminus, IP (JY)” value [4] was “+ (Major cleavage sites are defined as more than >1% of total digested peptide within the first hour)” and the “Proteasomal Cleavage of C-terminus, HH (HeLa)” value [5] was “+ (Major cleavage sites are defined as more than >1% of total digested peptide within the first hour)”.
